# Test results reported in the kinase profiling compilation of Christmann-Franck et al. (2016).
# How the values were obtained:
# Assay in all cases: radiometric filter-binding kinase assay
# [1] = molecular target: AURKC (human) (UniProt Q9UQB9)
# [2] = molecular target: CAMKK1 (human) (UniProt Q8N5S9)
# [3] = molecular target: MAPKAPK3 (human) (UniProt Q16644)
# [4] = molecular target: NEK7 (human) (UniProt Q8TDX7)
# [5] = test system: PRKAA1 or PRKAA2 (rat); settings: accession and sequence are those of the human protein
# [6] = molecular target: ABL1 (human) (UniProt P00519)
# [7] = molecular target: CDK9 CCNT1 (human) (UniProt P50750+O60563)
# [8] = molecular target: CSNK1G2 (human) (UniProt P78368)
# [9] = molecular target: DDR2 (human) (UniProt Q16832)
# [10] = molecular target: EIF2AK3 (human) (UniProt Q9NZJ5)
# [11] = molecular target: IRAK1 (human) (UniProt P51617)
# [12] = molecular target: MAP4K3 (human) (UniProt Q8IVH8)
# [13] = molecular target: MAP4K5 (human) (UniProt Q9Y4K4)
# [14] = molecular target: MAPK7 (human) (UniProt Q13164)
# [15] = test system: OXSR1 (human), O95747 [T185E]
# [16] = molecular target: PDGFRA (human) (UniProt P16234)
# [17] = molecular target: PRKAA1 PRKAB2 PRKAG1 (human) (UniProt O43741+Q13131+P54619)
# [18] = molecular target: PRKCG (human) (UniProt P05129)
# [19] = molecular target: PTK6 (human) (UniProt Q13882)
# [20] = molecular target: SIK2 (human) (UniProt Q9H0K1)
# [21] = molecular target: SIK3 (human) (UniProt Q9Y2K2)
# [22] = molecular target: STK16 (human) (UniProt O75716)
# [23] = molecular target: STK24 (human) (UniProt Q9Y6E0)
# [24] = molecular target: STK33 (human) (UniProt Q9BYT3)
# [25] = molecular target: TEK (human) (UniProt Q02763)
# [26] = molecular target: TESK1 (human) (UniProt Q15569)
# [27] = test system: TGFBR1 (human), P36897 [T204D]
# [28] = molecular target: TLK1 (human) (UniProt Q9UKI8)
# [29] = molecular target: TSSK1B (human) (UniProt Q9BXA7)
# [30] = molecular target: TTBK1 (human) (UniProt Q5TCY1)
# [31] = molecular target: TTBK2 (human) (UniProt Q6IQ55)
# [32] = molecular target: ULK1 (human) (UniProt O75385)
# [33] = molecular target: ULK2 (human) (UniProt Q8IYT8)
# [34] = molecular target: WNK1 (human) (UniProt Q9H4A3)
# [35] = molecular target: ZAP70 (human) (UniProt P43403)
# Chain of AURKC (human) (Q9UQB9 whole entry, looked up): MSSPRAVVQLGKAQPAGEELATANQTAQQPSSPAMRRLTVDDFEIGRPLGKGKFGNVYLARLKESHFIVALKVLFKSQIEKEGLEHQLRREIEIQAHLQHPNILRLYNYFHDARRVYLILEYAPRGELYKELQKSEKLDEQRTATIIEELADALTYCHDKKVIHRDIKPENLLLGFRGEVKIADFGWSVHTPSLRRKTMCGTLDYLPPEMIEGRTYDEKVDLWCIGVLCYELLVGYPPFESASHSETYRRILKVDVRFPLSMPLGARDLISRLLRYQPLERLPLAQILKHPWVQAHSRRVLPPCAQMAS
# Chain of MAPKAPK3 (human) (Q16644 whole entry, looked up): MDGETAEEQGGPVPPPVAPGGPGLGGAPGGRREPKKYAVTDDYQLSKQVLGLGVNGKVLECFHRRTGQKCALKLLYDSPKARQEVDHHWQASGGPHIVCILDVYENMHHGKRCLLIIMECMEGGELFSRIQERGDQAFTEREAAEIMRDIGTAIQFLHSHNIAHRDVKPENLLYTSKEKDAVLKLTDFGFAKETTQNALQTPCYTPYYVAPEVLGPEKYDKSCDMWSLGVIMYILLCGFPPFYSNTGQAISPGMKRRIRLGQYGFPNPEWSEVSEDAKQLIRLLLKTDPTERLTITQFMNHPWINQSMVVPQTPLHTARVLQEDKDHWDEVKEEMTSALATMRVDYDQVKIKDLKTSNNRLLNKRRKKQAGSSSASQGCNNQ
# Chain of NEK7 (human) (Q8TDX7 whole entry, looked up): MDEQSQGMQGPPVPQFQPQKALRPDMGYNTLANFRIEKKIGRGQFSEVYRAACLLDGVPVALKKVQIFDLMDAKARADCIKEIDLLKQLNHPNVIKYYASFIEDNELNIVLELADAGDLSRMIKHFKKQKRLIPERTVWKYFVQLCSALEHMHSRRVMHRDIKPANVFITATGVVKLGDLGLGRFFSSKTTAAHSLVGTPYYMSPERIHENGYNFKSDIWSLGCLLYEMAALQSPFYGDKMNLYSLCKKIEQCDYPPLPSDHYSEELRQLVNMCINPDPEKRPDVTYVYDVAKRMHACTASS
# Chain of CAMKK1 (human) (Q8N5S9 whole entry, looked up): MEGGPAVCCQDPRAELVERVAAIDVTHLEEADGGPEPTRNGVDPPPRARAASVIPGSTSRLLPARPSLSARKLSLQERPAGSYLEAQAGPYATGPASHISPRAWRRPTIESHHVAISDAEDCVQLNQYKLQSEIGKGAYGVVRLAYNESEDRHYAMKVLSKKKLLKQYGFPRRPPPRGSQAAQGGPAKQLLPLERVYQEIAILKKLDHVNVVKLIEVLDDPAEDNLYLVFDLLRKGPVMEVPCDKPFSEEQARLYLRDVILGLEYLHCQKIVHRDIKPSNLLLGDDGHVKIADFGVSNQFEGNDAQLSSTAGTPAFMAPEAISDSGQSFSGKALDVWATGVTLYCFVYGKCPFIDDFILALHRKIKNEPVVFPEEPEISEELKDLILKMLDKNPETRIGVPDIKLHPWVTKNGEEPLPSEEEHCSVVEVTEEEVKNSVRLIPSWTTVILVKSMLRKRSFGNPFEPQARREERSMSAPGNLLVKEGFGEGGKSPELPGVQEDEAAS
# Chain of PRKAA1 PRKAB2 PRKAG1 (human) (O43741 whole entry, looked up): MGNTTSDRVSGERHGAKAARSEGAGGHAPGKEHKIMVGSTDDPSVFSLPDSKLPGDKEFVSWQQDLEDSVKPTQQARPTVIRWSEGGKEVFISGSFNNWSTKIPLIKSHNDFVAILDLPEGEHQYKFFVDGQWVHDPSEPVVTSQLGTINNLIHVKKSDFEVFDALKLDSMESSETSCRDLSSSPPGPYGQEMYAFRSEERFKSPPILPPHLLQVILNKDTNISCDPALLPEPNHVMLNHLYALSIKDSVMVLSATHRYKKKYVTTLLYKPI
# Chain of PRKAA1 PRKAB2 PRKAG1 (human) (P54619 whole entry, looked up): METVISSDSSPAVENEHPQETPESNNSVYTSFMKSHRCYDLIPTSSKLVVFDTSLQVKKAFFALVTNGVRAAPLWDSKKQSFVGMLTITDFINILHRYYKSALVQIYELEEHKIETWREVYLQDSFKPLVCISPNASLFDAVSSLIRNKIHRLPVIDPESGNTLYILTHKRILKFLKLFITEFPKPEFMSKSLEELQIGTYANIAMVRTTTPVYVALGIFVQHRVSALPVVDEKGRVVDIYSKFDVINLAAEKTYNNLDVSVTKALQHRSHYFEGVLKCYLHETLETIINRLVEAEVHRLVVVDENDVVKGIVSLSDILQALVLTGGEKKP
# Chain of PRKAA1 PRKAB2 PRKAG1 (human) (Q13131 whole entry, looked up): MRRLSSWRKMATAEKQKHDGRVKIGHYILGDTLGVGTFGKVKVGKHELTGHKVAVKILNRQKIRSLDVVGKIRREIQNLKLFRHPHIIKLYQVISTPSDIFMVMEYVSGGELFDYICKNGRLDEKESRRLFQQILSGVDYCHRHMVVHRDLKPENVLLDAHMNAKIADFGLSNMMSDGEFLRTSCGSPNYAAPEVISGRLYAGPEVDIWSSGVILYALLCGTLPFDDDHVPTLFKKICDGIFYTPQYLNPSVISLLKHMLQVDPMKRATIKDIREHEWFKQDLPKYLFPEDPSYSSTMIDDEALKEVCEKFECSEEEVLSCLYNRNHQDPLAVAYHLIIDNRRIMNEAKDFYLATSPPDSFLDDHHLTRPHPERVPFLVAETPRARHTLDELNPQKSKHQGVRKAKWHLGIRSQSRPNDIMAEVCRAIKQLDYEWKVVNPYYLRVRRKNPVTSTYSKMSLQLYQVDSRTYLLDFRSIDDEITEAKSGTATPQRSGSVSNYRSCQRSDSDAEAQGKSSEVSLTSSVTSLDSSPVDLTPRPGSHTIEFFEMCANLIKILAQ
# Chain of TGFBR1 (human), P36897 [T204D] (P36897 whole entry T204D, looked up): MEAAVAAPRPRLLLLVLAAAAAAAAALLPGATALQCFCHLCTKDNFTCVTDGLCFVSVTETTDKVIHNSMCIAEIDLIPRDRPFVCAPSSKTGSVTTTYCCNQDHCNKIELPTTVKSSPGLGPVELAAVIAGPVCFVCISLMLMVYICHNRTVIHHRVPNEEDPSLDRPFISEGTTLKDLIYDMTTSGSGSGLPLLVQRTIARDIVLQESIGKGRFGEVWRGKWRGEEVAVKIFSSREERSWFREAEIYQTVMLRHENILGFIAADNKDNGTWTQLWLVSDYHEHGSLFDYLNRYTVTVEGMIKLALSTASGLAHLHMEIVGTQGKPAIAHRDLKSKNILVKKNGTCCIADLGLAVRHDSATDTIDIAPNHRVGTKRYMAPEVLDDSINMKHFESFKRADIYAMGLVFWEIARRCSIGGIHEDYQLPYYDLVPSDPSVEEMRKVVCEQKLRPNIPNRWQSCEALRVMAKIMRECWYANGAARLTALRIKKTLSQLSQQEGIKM
# Chain of ABL1 (human) (P00519 whole entry, looked up): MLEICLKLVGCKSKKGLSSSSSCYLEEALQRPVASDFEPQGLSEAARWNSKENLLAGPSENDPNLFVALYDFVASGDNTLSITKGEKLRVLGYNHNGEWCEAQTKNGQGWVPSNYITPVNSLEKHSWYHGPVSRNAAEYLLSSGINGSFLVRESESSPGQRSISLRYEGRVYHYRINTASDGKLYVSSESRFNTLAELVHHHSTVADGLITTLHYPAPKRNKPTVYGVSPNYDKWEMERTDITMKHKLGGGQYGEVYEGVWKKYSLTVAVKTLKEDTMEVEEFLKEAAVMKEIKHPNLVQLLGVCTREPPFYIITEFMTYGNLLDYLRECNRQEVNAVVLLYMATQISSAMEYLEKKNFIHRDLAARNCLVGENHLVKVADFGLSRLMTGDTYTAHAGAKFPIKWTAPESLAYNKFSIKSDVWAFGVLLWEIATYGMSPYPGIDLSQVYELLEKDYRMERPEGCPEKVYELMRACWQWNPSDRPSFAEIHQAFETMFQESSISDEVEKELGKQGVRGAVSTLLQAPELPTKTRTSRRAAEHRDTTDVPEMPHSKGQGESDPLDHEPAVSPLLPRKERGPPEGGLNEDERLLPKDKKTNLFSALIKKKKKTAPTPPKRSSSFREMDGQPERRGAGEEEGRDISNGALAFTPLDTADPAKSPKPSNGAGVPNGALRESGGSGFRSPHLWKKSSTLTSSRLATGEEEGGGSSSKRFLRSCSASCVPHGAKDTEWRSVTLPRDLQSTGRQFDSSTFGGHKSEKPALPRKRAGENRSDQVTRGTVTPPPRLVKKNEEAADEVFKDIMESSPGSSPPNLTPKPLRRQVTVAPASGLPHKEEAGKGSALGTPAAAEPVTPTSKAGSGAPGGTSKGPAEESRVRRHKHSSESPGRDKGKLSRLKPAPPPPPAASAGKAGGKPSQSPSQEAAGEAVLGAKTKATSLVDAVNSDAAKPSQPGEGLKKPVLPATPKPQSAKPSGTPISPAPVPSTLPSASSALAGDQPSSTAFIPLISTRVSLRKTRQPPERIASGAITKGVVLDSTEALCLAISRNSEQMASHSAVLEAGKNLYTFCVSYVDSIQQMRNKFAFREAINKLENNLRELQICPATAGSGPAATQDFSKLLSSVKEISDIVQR
# Chain of STK24 (human) (Q9Y6E0 whole entry, looked up): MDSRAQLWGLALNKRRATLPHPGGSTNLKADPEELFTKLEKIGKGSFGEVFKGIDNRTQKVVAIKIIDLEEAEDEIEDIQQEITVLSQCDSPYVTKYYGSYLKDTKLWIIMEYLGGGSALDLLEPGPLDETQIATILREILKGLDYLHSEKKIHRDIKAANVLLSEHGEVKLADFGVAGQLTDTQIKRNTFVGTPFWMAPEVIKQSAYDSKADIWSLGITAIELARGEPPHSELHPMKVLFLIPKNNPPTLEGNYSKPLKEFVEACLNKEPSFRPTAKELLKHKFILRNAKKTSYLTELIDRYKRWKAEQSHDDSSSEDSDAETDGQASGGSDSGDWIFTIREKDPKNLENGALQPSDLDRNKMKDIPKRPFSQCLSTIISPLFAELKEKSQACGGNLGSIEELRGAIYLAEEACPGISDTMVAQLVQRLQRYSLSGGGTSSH
smiles,measurement,setting,value
COc1ccc2c(c1)c1c3c(c4c5ccccc5n(C)c4c1n2CC(O)CN(C)C)C(=O)NC3=O (centres undefined),residual activity,[1]; compound 0.1 µM,48%
same,residual activity,[1]; compound 1.0 µM,13%
same,residual activity,[1]; compound 10.0 µM,7%
same,residual activity,[2]; compound 0.1 µM,109%
same,residual activity,[2]; compound 1.0 µM,97%
same,residual activity,[2]; compound 10.0 µM,101%
same,residual activity,[3]; compound 0.1 µM,131%
same,residual activity,[3]; compound 1.0 µM,92%
same,residual activity,[3]; compound 10.0 µM,79%
same,residual activity,[4]; compound 0.1 µM,94%
same,residual activity,[4]; compound 1.0 µM,84%
same,residual activity,[4]; compound 10.0 µM,82%
same,residual activity,[5]; compound 0.1 µM,64%
same,residual activity,[5]; compound 1.0 µM,19%
same,residual activity,[5]; compound 10.0 µM,24%
Cn1nc(Nc2ccc(F)cc2)c2c(N)ncnc21,residual activity,[1]; compound 1.0 µM,125%
same,residual activity,[1]; compound 10.0 µM,117%
same,residual activity,[2]; compound 1.0 µM,89%
same,residual activity,[2]; compound 10.0 µM,112%
same,residual activity,[3]; compound 1.0 µM,137%
same,residual activity,[3]; compound 10.0 µM,132%
same,residual activity,[4]; compound 1.0 µM,94%
same,residual activity,[4]; compound 10.0 µM,99%
same,residual activity,[5]; compound 1.0 µM,105%
same,residual activity,[5]; compound 10.0 µM,107%
CCNc1nc(Nc2cc(F)c(C(=O)N3CCOCC3)cc2OC)ncc1C(F)(F)F,residual activity,[6]; compound 1.0 µM,102%
same,residual activity,[6]; compound 10.0 µM,106%
same,residual activity,[7]; compound 1.0 µM,96%
same,residual activity,[7]; compound 10.0 µM,90%
same,residual activity,[8]; compound 1.0 µM,91%
same,residual activity,[8]; compound 10.0 µM,90%
same,residual activity,[9]; compound 1.0 µM,97%
same,residual activity,[9]; compound 10.0 µM,98%
same,residual activity,[10]; compound 1.0 µM,99%
same,residual activity,[10]; compound 10.0 µM,80%
same,residual activity,[11]; compound 1.0 µM,100%
same,residual activity,[11]; compound 10.0 µM,93%
same,residual activity,[12]; compound 1.0 µM,69%
same,residual activity,[12]; compound 10.0 µM,21%
same,residual activity,[13]; compound 1.0 µM,109%
same,residual activity,[13]; compound 10.0 µM,90%
same,residual activity,[14]; compound 1.0 µM,65%
same,residual activity,[14]; compound 10.0 µM,32%
same,residual activity,[3]; compound 1.0 µM,91%
same,residual activity,[3]; compound 10.0 µM,108%
same,residual activity,[15]; compound 1.0 µM,99%
same,residual activity,[15]; compound 10.0 µM,54%
same,residual activity,[16]; compound 1.0 µM,91%
same,residual activity,[16]; compound 10.0 µM,61%
same,residual activity,[5]; compound 1.0 µM,75%
same,residual activity,[5]; compound 10.0 µM,56%
same,residual activity,[17]; compound 1.0 µM,71%
same,residual activity,[17]; compound 10.0 µM,29%
same,residual activity,[18]; compound 1.0 µM,108%
same,residual activity,[18]; compound 10.0 µM,95%
same,residual activity,[19]; compound 1.0 µM,57%
same,residual activity,[19]; compound 10.0 µM,15%
same,residual activity,[20]; compound 1.0 µM,66%
same,residual activity,[20]; compound 10.0 µM,21%
same,residual activity,[21]; compound 1.0 µM,110%
same,residual activity,[21]; compound 10.0 µM,88%
same,residual activity,[22]; compound 1.0 µM,97%
same,residual activity,[22]; compound 10.0 µM,96%
same,residual activity,[23]; compound 1.0 µM,97%
same,residual activity,[23]; compound 10.0 µM,81%
same,residual activity,[24]; compound 1.0 µM,39%
same,residual activity,[24]; compound 10.0 µM,22%
same,residual activity,[25]; compound 1.0 µM,100%
same,residual activity,[25]; compound 10.0 µM,85%
same,residual activity,[26]; compound 1.0 µM,104%
same,residual activity,[26]; compound 10.0 µM,98%
same,residual activity,[27]; compound 1.0 µM,110%
same,residual activity,[27]; compound 10.0 µM,102%
same,residual activity,[28]; compound 1.0 µM,104%
same,residual activity,[28]; compound 10.0 µM,101%
same,residual activity,[29]; compound 1.0 µM,12%
same,residual activity,[29]; compound 10.0 µM,3%
same,residual activity,[30]; compound 1.0 µM,100%
same,residual activity,[30]; compound 10.0 µM,84%
same,residual activity,[31]; compound 1.0 µM,95%
same,residual activity,[31]; compound 10.0 µM,74%
same,residual activity,[32]; compound 1.0 µM,98%
same,residual activity,[32]; compound 10.0 µM,47%
same,residual activity,[33]; compound 1.0 µM,92%
same,residual activity,[33]; compound 10.0 µM,61%
same,residual activity,[34]; compound 1.0 µM,103%
same,residual activity,[34]; compound 10.0 µM,104%
same,residual activity,[35]; compound 1.0 µM,102%
same,residual activity,[35]; compound 10.0 µM,79%
